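In this assay, cells in 96-well plates receive the compound at five concentrations for 48 hours. Endpoints are linearly interpolated between the surrounding concentrations. At the TGI there is no net growth.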
Key:
Test in all cases: NCI anticancer screen, dose series, 48 h
A549 NSCLC = system: A549 NSCLC
ACHN renal = system: ACHN renal
BT-549 breast = system: BT-549 breast
CAKI-1 renal = system: CAKI-1 renal
CCRF-CEM leukemia = system: CCRF-CEM leukemia
COLO 205 colon = system: COLO 205 colon
DU-145 prostate = system: DU-145 prostate
EKVX NSCLC = system: EKVX NSCLC
HCC-2998 colon = system: HCC-2998 colon
HCT-116 colon = system: HCT-116 colon
HCT-15 colon = system: HCT-15 colon
HL-60(TB) leukemia = system: HL-60(TB) leukemia
HOP-62 NSCLC = system: HOP-62 NSCLC
HOP-92 NSCLC = system: HOP-92 NSCLC
HT29 colon = system: HT29 colon
K-562 leukemia = system: K-562 leukemia
KM12 colon = system: KM12 colon
LOX IMVI melanoma = system: LOX IMVI melanoma
M14 melanoma = system: M14 melanoma
MALME-3M melanoma = system: MALME-3M melanoma
MCF7 breast = system: MCF7 breast
MDA-MB-231 breast = system: MDA-MB-231 breast
MDA-MB-435 = system: MDA-MB-435
MDA-N = system: MDA-N
MOLT-4 leukemia = system: MOLT-4 leukemia
NCI-H23 lung = system: NCI-H23 lung
NCI-H460 lung = system: NCI-H460 lung
NCI/ADR-RES ovarian = system: NCI/ADR-RES ovarian
OVCAR-3 ovarian = system: OVCAR-3 ovarian
OVCAR-4 ovarian = system: OVCAR-4 ovarian
OVCAR-5 ovarian = system: OVCAR-5 ovarian
OVCAR-8 ovarian = system: OVCAR-8 ovarian
PC-3 prostate = system: PC-3 prostate
RPMI-8226 leukemia = system: RPMI-8226 leukemia
SF-295 CNS = system: SF-295 CNS
SK-MEL-2 melanoma = system: SK-MEL-2 melanoma
SK-MEL-28 melanoma = system: SK-MEL-28 melanoma
SK-MEL-5 melanoma = system: SK-MEL-5 melanoma
SN12C renal = system: SN12C renal
SNB-19 CNS = system: SNB-19 CNS
SR leukemia = system: SR leukemia
TK-10 renal = system: TK-10 renal
U251 CNS = system: U251 CNS
UACC-257 melanoma = system: UACC-257 melanoma
UO-31 renal = system: UO-31 renal
786-0 renal = system: 786-0 renal
A498 renal = system: A498 renal
IGROV1 ovarian = system: IGROV1 ovarian
NCI-H226 lung = system: NCI-H226 lung
NCI-H522 lung = system: NCI-H522 lung
RXF 393 renal = system: RXF 393 renal
SF-268 CNS = system: SF-268 CNS
SF-539 CNS = system: SF-539 CNS
SK-OV-3 ovarian = system: SK-OV-3 ovarian
SNB-75 CNS = system: SNB-75 CNS
SW-620 colon = system: SW-620 colon
T-47D breast = system: T-47D breast
UACC-62 melanoma = system: UACC-62 melanoma
HS 578T breast = system: HS 578T breast

Measured: TGI

O=c1[nH]nc(NCc2ccccc2)c2nnn(Cc3ccccc3)c12
> 100 µM: A549 NSCLC | ACHN renal | BT-549 breast | CAKI-1 renal | CCRF-CEM leukemia | COLO 205 colon | DU-145 prostate | EKVX NSCLC | HCC-2998 colon | HCT-116 colon | HCT-15 colon | HL-60(TB) leukemia | HOP-62 NSCLC | HOP-92 NSCLC | HT29 colon | K-562 leukemia | KM12 colon | LOX IMVI melanoma | M14 melanoma | MALME-3M melanoma | MCF7 breast | MDA-MB-231 breast | MDA-MB-435 | MDA-N | MOLT-4 leukemia | NCI-H23 lung | NCI-H460 lung | NCI/ADR-RES ovarian | OVCAR-3 ovarian | OVCAR-4 ovarian | OVCAR-5 ovarian | OVCAR-8 ovarian | PC-3 prostate | RPMI-8226 leukemia | SF-295 CNS | SK-MEL-2 melanoma | SK-MEL-28 melanoma | SK-MEL-5 melanoma | SN12C renal | SNB-19 CNS | SR leukemia | TK-10 renal | U251 CNS | UACC-257 melanoma | UO-31 renal

CCOP(=O)(OCC)/C(C#N)=C/c1cccn1C(C)C
> 100 µM: 786-0 renal | A498 renal | A549 NSCLC | ACHN renal | BT-549 breast | CAKI-1 renal | COLO 205 colon | DU-145 prostate | EKVX NSCLC | HCC-2998 colon | HCT-116 colon | HCT-15 colon | HOP-62 NSCLC | HOP-92 NSCLC | HT29 colon | IGROV1 ovarian | K-562 leukemia | KM12 colon | LOX IMVI melanoma | M14 melanoma | MALME-3M melanoma | MDA-MB-231 breast | MDA-MB-435 | MDA-N | MOLT-4 leukemia | NCI-H226 lung | NCI-H23 lung | NCI-H460 lung | NCI-H522 lung | NCI/ADR-RES ovarian | OVCAR-3 ovarian | OVCAR-5 ovarian | OVCAR-8 ovarian | PC-3 prostate | RXF 393 renal | SF-268 CNS | SF-295 CNS | SF-539 CNS | SK-MEL-2 melanoma | SK-MEL-28 melanoma | SK-MEL-5 melanoma | SK-OV-3 ovarian | SN12C renal | SNB-19 CNS | SNB-75 CNS | SR leukemia | SW-620 colon | T-47D breast | TK-10 renal | U251 CNS | UACC-257 melanoma | UACC-62 melanoma | UO-31 renal

O=P1(c2ccccc2)c2ccccc2-c2ccccc21
> 100 µM: 786-0 renal | A549 NSCLC | BT-549 breast | CAKI-1 renal | CCRF-CEM leukemia | COLO 205 colon | DU-145 prostate | EKVX NSCLC | HCC-2998 colon | HCT-116 colon | HCT-15 colon | HL-60(TB) leukemia | HOP-62 NSCLC | HOP-92 NSCLC | HS 578T breast | IGROV1 ovarian | K-562 leukemia | KM12 colon | LOX IMVI melanoma | MCF7 breast | MDA-MB-231 breast | MDA-MB-435 | MDA-N | MOLT-4 leukemia | NCI-H226 lung | NCI-H23 lung | NCI-H522 lung | OVCAR-3 ovarian | OVCAR-8 ovarian | PC-3 prostate | RPMI-8226 leukemia | RXF 393 renal | SF-268 CNS | SF-295 CNS | SF-539 CNS | SK-MEL-2 melanoma | SK-MEL-28 melanoma | SK-MEL-5 melanoma | SK-OV-3 ovarian | SN12C renal | SNB-19 CNS | SNB-75 CNS | SW-620 colon | TK-10 renal | UACC-257 melanoma | UACC-62 melanoma | UO-31 renal

From PubChem BioAssay (NCI)
